Data published in patent US8999940B2 (Ipsen Pharma S.A.S., priority 2008, dated 2015).

Tests used:
[1] = target: T1, human recombinant GIP receptor (Homo sapiens, UniProt P48546); assay: In vitro hGIP receptor binding assay
T1 construct: expressed in transfected cells; host or cells: CHO-K1 clonal cells (membrane preparation)
T1 sequence (P48546 22-466): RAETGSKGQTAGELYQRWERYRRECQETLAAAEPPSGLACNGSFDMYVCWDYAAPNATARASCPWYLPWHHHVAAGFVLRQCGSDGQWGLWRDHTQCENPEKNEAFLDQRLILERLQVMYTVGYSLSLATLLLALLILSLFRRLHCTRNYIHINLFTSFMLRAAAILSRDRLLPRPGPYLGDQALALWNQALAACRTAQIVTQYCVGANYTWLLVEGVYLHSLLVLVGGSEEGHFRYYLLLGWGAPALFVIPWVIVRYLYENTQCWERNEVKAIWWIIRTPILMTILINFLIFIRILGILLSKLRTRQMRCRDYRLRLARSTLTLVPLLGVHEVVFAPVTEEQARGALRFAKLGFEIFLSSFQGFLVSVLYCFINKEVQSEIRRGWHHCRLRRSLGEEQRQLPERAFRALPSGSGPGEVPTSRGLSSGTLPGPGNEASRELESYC
Description: A. In Vitro hGIP Receptor Binding Assay […] The incubations were terminated by rapid filtration through GF/C filters (pre-soaked in 0.5% polyethylenimine) using a Brandel filtration manifold. Each tube and filter were then washed three times with 5-ml aliquots of ice-cold buffer.

[2] = Human plasma half-life assay; type: in vitro ADME; conditions: 37° C., LC-MS, read-out: Human Plasma T½ (converted)
[3] = Rat plasma half-life assay; type: in vitro ADME; conditions: 37° C., LC-MS, read-out: Rat Plasma T½ (converted)

Work on `CCCC[C@H](NC(=O)[C@H](C)NC(=O)[C@@H](NC(=O)C1(NC(=O)[C@H](Cc2ccc(O)cc2)NC(=O)[C@H](CC(=O)O)NC(=O)[C@H](CO)NC(=O)[C@@H](NC(=O)[C@H](Cc2ccccc2)NC(=O)[C@@H](NC(=O)CNC(=O)[C@H](CCC(=O)O)NC(=O)C(C)(C)NC(=O)[C@@H](N)Cc2ccc(F)c(F)c2)[C@@H](C)O)[C@@H](C)CC)CCCC1)[C@@H](C)CC)C(=O)N[C@@H](CC(=O)O)C(=O)N[C@@H](CCCCN)C(=O)N[C@H](C(=O)N[C@@H](Cc1c[nH]cn1)C(=O)N[C@@H](CCC(N)=O)C(=O)N[C@@H](CCC(N)=O)C(=O)N[C@@H](CC(=O)O)C(=O)N[C@@H](Cc1ccccc1)C(=O)N[C@H](C(=O)N[C@@H](CC(N)=O)C(=O)N[C@@H](Cc1c[nH]c2ccccc12)C(=O)N[C@@H](CC(C)C)C(=O)N[C@@H](CC(C)C)C(=O)N[C@@H](C)C(=O)N[C@@H](CCC(N)=O)C(=O)N[C@@H](CCCCN)C(=O)NCC(=O)N[C@@H](CCCCN)C(=O)N[C@@H](CCCCN)C(=O)N[C@@H](CC(N)=O)C(=O)N[C@@H](CC(=O)O)C(=O)N[C@@H](Cc1c[nH]c2ccccc12)C(=O)N[C@@H](CCCCN)C(=O)N[C@@H](Cc1c[nH]cn1)C(=O)N[C@@H](CC(N)=O)C(=O)N[C@H](C(=O)N[C@H](C(=O)N[C@@H](CCC(N)=O)C(=O)O)[C@@H](C)O)[C@@H](C)CC)C(C)C)[C@@H](C)CC` [Example 24, (3,4F-Phe^1, Aib^2, A5c^11, Nle^14)hGIP(1-42)-OH] yielded a Ki [1] of 15.7 nM, a half-life at 0.1 mg/ml [2] greater than 74 h and a half-life at 0.1 mg/ml [3] greater than 74 h.

Compound `CCCC[C@H](NC(=O)[C@H](C)NC(=O)[C@@H](NC(=O)C1(NC(=O)[C@H](Cc2ccc(O)cc2)NC(=O)[C@H](CC(=O)O)NC(=O)[C@H](CO)NC(=O)[C@@H](NC(=O)[C@H](Cc2ccccc2)NC(=O)[C@@H](NC(=O)CNC(=O)[C@H](CCC(=O)O)NC(=O)C(C)(C)NC(=O)[C@@H](N)Cc2cc(F)cc(F)c2)[C@@H](C)O)[C@@H](C)CC)CCCC1)[C@@H](C)CC)C(=O)N[C@@H](CC(=O)O)C(=O)N[C@@H](CCCCN)C(=O)N[C@H](C(=O)N[C@@H](Cc1c[nH]cn1)C(=O)N[C@@H](CCC(N)=O)C(=O)N[C@@H](CCC(N)=O)C(=O)N[C@@H](CC(=O)O)C(=O)N[C@@H](Cc1ccccc1)C(=O)N[C@H](C(=O)N[C@@H](CC(N)=O)C(=O)N[C@@H](Cc1c[nH]c2ccccc12)C(=O)N[C@@H](CC(C)C)C(=O)N[C@@H](CC(C)C)C(=O)N[C@@H](C)C(=O)N[C@@H](CCC(N)=O)C(=O)N[C@@H](CCCCN)C(=O)NCC(=O)N[C@@H](CCCCN)C(=O)N[C@@H](CCCCN)C(=O)N[C@@H](CC(N)=O)C(=O)N[C@@H](CC(=O)O)C(=O)N[C@@H](Cc1c[nH]c2ccccc12)C(=O)N[C@@H](CCCCN)C(=O)N[C@@H](Cc1c[nH]cn1)C(=O)N[C@@H](CC(N)=O)C(=O)N[C@H](C(=O)N[C@H](C(=O)N[C@@H](CCC(N)=O)C(=O)O)[C@@H](C)O)[C@@H](C)CC)C(C)C)[C@@H](C)CC` [Example 25, (3,5F-Phe^1, Aib^2, A5c^11, Nle^14)hGIP(1-42)-OH] has a Ki [1] of 26 nM, a half-life at 0.1 mg/ml [2] greater than 74 h and a half-life at 0.1 mg/ml [3] greater than 74 h.

Work on `CC[C@H](C)[C@H](NC(=O)[C@H](CCCCN)NC(=O)[C@H](CC(=O)O)NC(=O)[C@H](CCSC)NC(=O)[C@H](C)NC(=O)[C@@H](NC(=O)C1(NC(=O)[C@H](Cc2ccc(O)cc2)NC(=O)[C@H](CC(=O)O)NC(=O)[C@H](CO)NC(=O)[C@@H](NC(=O)[C@H](Cc2ccccc2)NC(=O)[C@@H](NC(=O)CNC(=O)[C@H](CCC(=O)O)NC(=O)C(C)(C)NC(=O)[C@@H](N)Cc2cccc(O)c2)[C@@H](C)O)[C@@H](C)CC)CCCC1)[C@@H](C)CC)C(=O)N[C@@H](Cc1c[nH]cn1)C(=O)N[C@@H](CCC(N)=O)C(=O)N[C@@H](CCC(N)=O)C(=O)N[C@@H](CC(=O)O)C(=O)N[C@@H](Cc1ccccc1)C(=O)N[C@H](C(=O)N[C@@H](CC(N)=O)C(=O)N[C@@H](Cc1c[nH]c2ccccc12)C(=O)N[C@@H](CC(C)C)C(=O)N[C@@H](CC(C)C)C(=O)N[C@@H](C)C(=O)N[C@@H](CCC(N)=O)C(=O)N[C@@H](CCCCN)C(=O)NCC(=O)N[C@@H](CCCCN)C(=O)N[C@@H](CCCCN)C(=O)N[C@@H](CC(N)=O)C(=O)N[C@@H](CC(=O)O)C(=O)N[C@@H](Cc1c[nH]c2ccccc12)C(=O)N[C@@H](CCCCN)C(=O)N[C@@H](Cc1c[nH]cn1)C(=O)N[C@@H](CC(N)=O)C(=O)N[C@H](C(=O)NC1(C(=O)N[C@@H](CCC(N)=O)C(=O)O)CCCC1)[C@@H](C)CC)C(C)C` [Example 26, (30H-Phe^1, Aib^2, A5c^11, 41)hGIP(1-42)-OH] yielded a Ki [1] of 7.52 nM, a half-life at 0.1 mg/ml [2] of 26.2 h and a half-life at 0.1 mg/ml [3] of 48.8 h.

For `CC[C@H](C)[C@H](NC(=O)[C@H](CCCCN)NC(=O)[C@H](CC(=O)O)NC(=O)[C@H](CCSC)NC(=O)[C@H](C)NC(=O)[C@@H](NC(=O)C1(NC(=O)[C@H](Cc2ccc(O)cc2)NC(=O)[C@H](CC(=O)O)NC(=O)[C@H](CO)NC(=O)[C@@H](NC(=O)[C@H](Cc2ccccc2)NC(=O)[C@@H](NC(=O)CNC(=O)[C@H](CCC(=O)O)NC(=O)C(C)(C)NC(=O)[C@@H](N)Cc2ccc(O)c(O)c2)[C@@H](C)O)[C@@H](C)CC)CCCC1)[C@@H](C)CC)C(=O)N[C@@H](Cc1c[nH]cn1)C(=O)N[C@@H](CCC(N)=O)C(=O)N[C@@H](CCC(N)=O)C(=O)N[C@@H](CC(=O)O)C(=O)N[C@@H](Cc1ccccc1)C(=O)N[C@H](C(=O)N[C@@H](CC(N)=O)C(=O)N[C@@H](Cc1c[nH]c2ccccc12)C(=O)N[C@@H](CC(C)C)C(=O)N[C@@H](CC(C)C)C(=O)N[C@@H](C)C(=O)N[C@@H](CCC(N)=O)C(=O)N[C@@H](CCCCN)C(=O)NCC(=O)N[C@@H](CCCCN)C(=O)N[C@@H](CCCCN)C(=O)N[C@@H](CC(N)=O)C(=O)N[C@@H](CC(=O)O)C(=O)N[C@@H](Cc1c[nH]c2ccccc12)C(=O)N[C@@H](CCCCN)C(=O)N[C@@H](Cc1c[nH]cn1)C(=O)N[C@@H](CC(N)=O)C(=O)N[C@H](C(=O)NC1(C(=O)N[C@@H](CCC(N)=O)C(=O)O)CCCC1)[C@@H](C)CC)C(C)C` [Example 27, (30H-Tyr^1, Aib^2, A5c^11, 41)hGIP(1-42)-OH], the Ki [1] was 6.69 nM, the half-life at 0.1 mg/ml [2] was 7 h and the half-life at 0.1 mg/ml [3] was 5.1 h.

For `CC[C@H](C)[C@H](NC(=O)[C@H](CCCCN)NC(=O)[C@H](CC(=O)O)NC(=O)[C@H](CCSC)NC(=O)[C@H](C)NC(=O)[C@@H](NC(=O)C1(NC(=O)[C@H](Cc2ccc(O)cc2)NC(=O)[C@H](CC(=O)O)NC(=O)[C@H](CO)NC(=O)[C@@H](NC(=O)[C@H](Cc2ccccc2)NC(=O)[C@@H](NC(=O)CNC(=O)[C@H](CCC(=O)O)NC(=O)C(C)(C)NC(=O)[C@@H](N)Cc2ccc(OC(C)=O)cc2)[C@@H](C)O)[C@@H](C)CC)CCCC1)[C@@H](C)CC)C(=O)N[C@@H](Cc1c[nH]cn1)C(=O)N[C@@H](CCC(N)=O)C(=O)N[C@@H](CCC(N)=O)C(=O)N[C@@H](CC(=O)O)C(=O)N[C@@H](Cc1ccccc1)C(=O)N[C@H](C(=O)N[C@@H](CC(N)=O)C(=O)N[C@@H](Cc1c[nH]c2ccccc12)C(=O)N[C@@H](CC(C)C)C(=O)N[C@@H](CC(C)C)C(=O)N[C@@H](C)C(=O)N[C@@H](CCC(N)=O)C(=O)N[C@@H](CCCCN)C(=O)NCC(=O)N[C@@H](CCCCN)C(=O)N[C@@H](CCCCN)C(=O)N[C@@H](CC(N)=O)C(=O)N[C@@H](CC(=O)O)C(=O)N[C@@H](Cc1c[nH]c2ccccc12)C(=O)N[C@@H](CCCCN)C(=O)N[C@@H](Cc1c[nH]cn1)C(=O)N[C@@H](CC(N)=O)C(=O)N[C@H](C(=O)NC1(C(=O)N[C@@H](CCC(N)=O)C(=O)O)CCCC1)[C@@H](C)CC)C(C)C` [Example 29, [Tyr(Ac)^1, Aib^2, A5c^11, 41]hGIP(1-42)-OH], the Ki [1] was 0.73 nM, the half-life at 0.1 mg/ml [2] was 29.5 h and the half-life at 0.1 mg/ml [3] was 18.9 h.

With `CC[C@H](C)[C@H](NC(=O)[C@H](CCCCN)NC(=O)[C@H](CC(=O)O)NC(=O)[C@H](CCSC)NC(=O)[C@H](C)NC(=O)[C@@H](NC(=O)C1(NC(=O)[C@H](Cc2ccc(O)cc2)NC(=O)[C@H](CC(=O)O)NC(=O)[C@H](CO)NC(=O)[C@@H](NC(=O)[C@H](Cc2ccccc2)NC(=O)[C@@H](NC(=O)CNC(=O)[C@H](CCC(=O)O)NC(=O)C(C)(C)NC(=O)[C@@H](N)Cc2c(C)cc(O)cc2C)[C@@H](C)O)[C@@H](C)CC)CCCC1)[C@@H](C)CC)C(=O)N[C@@H](Cc1c[nH]cn1)C(=O)N[C@@H](CCC(N)=O)C(=O)N[C@@H](CCC(N)=O)C(=O)N[C@@H](CC(=O)O)C(=O)N[C@@H](Cc1ccccc1)C(=O)N[C@H](C(=O)N[C@@H](CC(N)=O)C(=O)N[C@@H](Cc1c[nH]c2ccccc12)C(=O)N[C@@H](CC(C)C)C(=O)N[C@@H](CC(C)C)C(=O)N[C@@H](C)C(=O)N[C@@H](CCC(N)=O)C(=O)N[C@@H](CCCCN)C(=O)NCC(=O)N[C@@H](CCCCN)C(=O)N[C@@H](CCCCN)C(=O)N[C@@H](CC(N)=O)C(=O)N[C@@H](CC(=O)O)C(=O)N[C@@H](Cc1c[nH]c2ccccc12)C(=O)N[C@@H](CCCCN)C(=O)N[C@@H](Cc1c[nH]cn1)C(=O)N[C@@H](CC(N)=O)C(=O)N[C@H](C(=O)NC1(C(=O)N[C@@H](CCC(N)=O)C(=O)O)CCCC1)[C@@H](C)CC)C(C)C` [Example 30, (2,6Me-Tyr^1, Aib^2, A5c^11, 41)hGIP(1-42)-OH] the Ki [1] was 1.03 nM, the half-life at 0.1 mg/ml [2] was 27.6 h and the half-life at 0.1 mg/ml [3] was 7.2 h.
